Test results reported in patent publication US6800625B2, “Substituted 2,4-dihydro-pyrrolo[3,4-b]quinolin-9-one derivatives useful as phosphodiesterase inhibitors” (Janssen Pharmaceutica N.V., priority 2002, dated 2004).

Key:
men who suffer from ED = settings: cited from earlier work
PDEV = PDEV (UniProt O76074); experiment: Cyclic nucleotide phosphodiesterase (PDE) assay, measurement of inhibition of PDEV; format: biochemical, rabbit or human; settings: PDEV isolated from rabbit and human tissues; 1 μM cGMP, 10% DMSO, 30° C., 30 minutes
Method: Cyclic Nucleotide Phosphodiesterase (PDE) Assay
PDEV was isolated from rabbit and human tissues according to the protocol described by Boolell et al. (Boolell, M., Allen, M. J., Ballard, S. A., Ge[o-Attee, S., Muirhead, G. J., Naylor, A. M., Osterdoh, I. H., and Gingell, C) in International Journal of Impotence Research 1996 8, 47-52 with minor modifications.
Briefly, rabbit or human tissues were homogenized in an ice-cold buffer solution containing 20 mM HEPES (pH 7.2), 0.25M sucrose, 1 mM EDTA, and 1 mM phenylmethylsulphonyl fluoride (PMSF). The homogenates were centrifuged at 100,000 g for 60 minutes at 4° C. The supernatant was filtered through […] filter and loaded on a Pharmacia Mono Q anion exchange column (1 ml bed volume) that was equilibrated with 20 mM HEPES, 1 mM EDTA and 0.5 mM PMSF. After washing out unbound proteins, the enzymes were eluted with a linear gradient of 100-600 mM NaCl in the same buffer (35 to 50 ml total, depending on the tissue. Enzymes from the skeletal muscle, corpus cavernosum, retina, heart and platelet were eluted with 35, 40, 45, 50, and 50 ml respectively.) The column was run at a flow rate of 1 ml/min and 1 ml fractions were collected. […]
The assays were adapted to a 96-well format. […] An aliquot of 200 μl was taken and counted by liquid scintillation. PDE activity was expressed as pmol cyclic nucleotide hydrolyzed/min/ml of enzyme preparation. […]

SMILES: CCCc1nn(C)c2c(=O)[nH]c(-c3cc(S(=O)(=O)N4CCN(C)CC4)ccc3OCC)nc12 [sildenafil, 5-[2-ethoxy-5-(4-methylpiperazin-1-ylsulphonyl)phenyl]-1-methyl-3-n-propyl-6,7-dihydro-1H-pyrazolo[4,3-d]pyrimidin-7-one]
- improved sexual function, share of men (men who suffer from ED; men who suffer from ED of psychogenic or organic etiology, clinical studies): about 70%
- improved erections, share of patients (men who suffer from ED; patients who had undergone a radical prostatectomy, versus 15% on placebo): 43%
- undesirable side effects (men who suffer from ED; use of sildenafil, result from non-selective effects on a variety of tissues): headache, flushing and disrupted color vision

SMILES: O=c1c2ccccc2[nH]c2c(-c3ccc4c(c3)OCO4)n(Cc3ccccc3)cc12 [Compound 2]
- IC50 (PDEV): 299 nM

SMILES: O=C1c2ccccc2NC23OC12CN(Cc1ccccc1)C3c1ccc2c(c1)OCO2 (centres unmarked) [Compound 1]
- IC50 (PDEV): 545 nM
